pIC50: −log10 of the molar value. Some results are limits rather than exact numbers.

One assay addresses T1, Zcchc11 enzyme (Homo sapiens, UniProt Q5TAX3).
T1 construct: made in house; host or cells: HEK293 cells (Zcchc11); E. coli Rosetta II (LIN28A)
T1 sequence (Q5TAX3 212-1420): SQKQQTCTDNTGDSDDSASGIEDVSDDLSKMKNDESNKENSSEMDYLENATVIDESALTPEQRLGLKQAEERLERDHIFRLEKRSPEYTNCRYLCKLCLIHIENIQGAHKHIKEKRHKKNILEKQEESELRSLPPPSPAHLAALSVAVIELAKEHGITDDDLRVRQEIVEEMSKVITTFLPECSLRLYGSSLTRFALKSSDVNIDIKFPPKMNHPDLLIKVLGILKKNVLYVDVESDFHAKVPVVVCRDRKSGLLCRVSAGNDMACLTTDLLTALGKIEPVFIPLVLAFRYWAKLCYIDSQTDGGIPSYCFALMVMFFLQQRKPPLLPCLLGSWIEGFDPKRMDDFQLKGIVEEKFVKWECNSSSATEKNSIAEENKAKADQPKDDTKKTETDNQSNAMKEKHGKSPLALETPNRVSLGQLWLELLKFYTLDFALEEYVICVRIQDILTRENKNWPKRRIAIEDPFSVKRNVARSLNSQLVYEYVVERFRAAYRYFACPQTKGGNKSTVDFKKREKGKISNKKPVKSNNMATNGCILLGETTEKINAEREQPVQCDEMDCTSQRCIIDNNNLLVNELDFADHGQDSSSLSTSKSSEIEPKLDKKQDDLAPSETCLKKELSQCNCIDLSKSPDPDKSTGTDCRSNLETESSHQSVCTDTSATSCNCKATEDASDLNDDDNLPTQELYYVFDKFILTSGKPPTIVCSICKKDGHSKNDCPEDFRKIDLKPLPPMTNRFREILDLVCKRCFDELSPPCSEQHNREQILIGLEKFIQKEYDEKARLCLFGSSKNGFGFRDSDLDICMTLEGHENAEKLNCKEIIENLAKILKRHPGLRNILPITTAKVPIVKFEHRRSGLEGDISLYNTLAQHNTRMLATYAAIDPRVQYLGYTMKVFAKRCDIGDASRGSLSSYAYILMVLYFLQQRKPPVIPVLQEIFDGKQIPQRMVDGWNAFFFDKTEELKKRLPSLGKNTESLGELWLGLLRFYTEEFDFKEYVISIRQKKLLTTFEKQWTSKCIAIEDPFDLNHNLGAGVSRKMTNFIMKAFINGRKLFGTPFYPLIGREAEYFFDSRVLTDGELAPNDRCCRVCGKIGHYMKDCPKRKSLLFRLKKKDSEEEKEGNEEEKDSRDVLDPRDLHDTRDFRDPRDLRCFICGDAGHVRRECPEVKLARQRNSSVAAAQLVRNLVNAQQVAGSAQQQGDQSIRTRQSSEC
The experiment in a line: TUTase assay (Zcchc11 assay, Lin28a-dependent polyuridylation of pre-let-7). It is filed as biochemical. To be noted: Lin28a-dependent Zcchc11 (Z11) TUTase activity; read-out: Potency Lin28a-dep Z11 IC50. In outline:
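Human Zcchc11 residues 212-1420 (HEK293-expressed, MBP tag cleaved, C-terminal FLAG) at 0.2 nM, with 10 nM full-length human LIN28A and 2 nM 5′-fluorescein pre-let-7, preincubated with compound 30 min at room temperature. Reaction started with 5 uM UTP plus 4 nM 3′-rhodamine A20 quench probe; fluorescein loss read kinetically, IC50 from initial rates.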
Consider `O=C(O)c1cn(-c2ccccc2)c2c(F)c(N3CCC[C@H]3COc3ccccn3)c(F)cc2c1=O` [a, (S)-6,8-difluoro-4-oxo-1-phenyl-7-(2-((pyridin-2-yloxy)methyl)pyrrolidin-1-yl)-1,4-dihydro-quinoline-3-carboxylic acid], for which the negative-log IC50 (pIC50) is 4.30 to 5.00.

The assay is the same for the next values; noted with them: Lin28a-dependent Zcchc11 (Z11) TUTase assay; read-out: Potency Lin28a-dep Z11 IC50.
Consider `CN(C)C1CN(c2ccc(-n3cc(C(=O)O)c(=O)c4cc(Cl)c(N5[C@@H](COc6nc(OC7CC7)ccc6Cl)C[C@H]6C[C@H]65)cc43)cn2)C1` [Example 672, 6-chloro-7-((1R,3R,5R)-3-(((3-chloro-6-cyclopropoxy-pyridin-2-yl)oxy)methyl)-2-azabicyclo[3.1.0]hexan-2-yl)-1-(6-(3-(dimethylamino)azetidin-1-yl)pyridin-3-yl)-4-oxo-1,4-dihydroquinoline-3-carboxylic acid], for which the pIC50 is ≥ 6.00.

In the case of `COc1ccnc(OC[C@H]2C[C@H]3C[C@H]3N2c2cc3c(cc2F)c(=O)c(C(=O)O)cn3-c2ccc(N3CC(N(C)C)C3)nc2)c1Cl` [Example 673, 7-((1R,3R,5R)-3-(((3-chloro-4-methoxypyridin-2-yl)oxy)methyl)-2-azabicyclo[3.1.0]hexan-2-yl)-1-(6-(3-(dimethylamino)azetidin-1-yl)pyridin-3-yl)-6-fluoro-4-oxo-1,4-dihydroquinoline-3-carboxylic acid], the pIC50 was ≥ 6.00.

For `COc1ccnc(OC[C@H]2C[C@H]3C[C@H]3N2c2cc3c(cc2Cl)c(=O)c(C(=O)O)cn3-c2ccc(N3CC(N(C)C)C3)nc2)c1Cl` [Example 674, 6-chloro-7-((1R,3R,5R)-3-(((3-chloro-4-methoxypyridin-2-yl)oxy)methyl)-2-azabicyclo[3.1.0]hexan-2-yl)-1-(6-(3-(dimethylamino)azetidin-1-yl)pyridin-3-yl)-4-oxo-1,4-dihydroquinoline-3-carboxylic acid], the pIC50 was ≥ 6.00.

With `CN(C)C1CN(c2ccc(-n3cc(C(=O)O)c(=O)c4cc(Cl)c(N5CC6(CC6)C[C@@H]5COc5nc(OC6CC6)ccc5Cl)cc43)cn2)C1` [Example 675, (R)-6-chloro-7-(6-(((3-chloro-6-cyclopropoxy-pyridin-2-yl)oxy)methyl)-5-azaspiro[2.4]heptan-5-yl)-1-(6-(3-(dimethylamino)azetidin-1-yl)pyridin-3-yl)-4-oxo-1,4-dihydroquinoline-3-carboxylic acid], the pIC50 is ≥ 6.00.

For the compound `COc1ccc(C)c(OC[C@H]2C[C@H]3C[C@H]3N2c2cc3c(cc2Cl)c(=O)c(C(=O)O)cn3-c2ccc(N3CC(N(C)C)C3)nc2)n1` [Example 676, 6-chloro-1-(6-(3-(dimethylamino)azetidin-1-yl)pyridin-3-yl)-7-((1R,3R,5R)-3-(((6-methoxy-3-methylpyridin-2-yl)oxy)methyl)-2-azabicyclo[3.1.0]hexan-2-yl)-4-oxo-1,4-dihydroquinoline-3-carboxylic acid], the pIC50 is ≥ 6.00.

For the compound `COc1ccc(Cl)c(OC[C@H]2C[C@H]3C[C@H]3N2c2nc3c(cc2Cl)c(=O)c(C(=O)O)cn3-c2ccc(N3CC(N(C)C)C3)nc2)n1` [Example 677, 6-chloro-7-((1R,3R,5R)-3-(((3-chloro-6-methoxypyridin-2-yl)oxy)methyl)-2-azabicyclo[3.1.0]hexan-2-yl)-1-(6-(3-(dimethylamino)azetidin-1-yl)pyridin-3-yl)-4-oxo-1,4-dihydro-1,8-naphthyridine-3-carboxylic aci], the pIC50 was ≥ 6.00.

`COc1ccnc(OC[C@H]2C[C@H]3C[C@H]3N2c2nc3c(cc2F)c(=O)c(C(=O)O)cn3-c2ccc(N3CC(N(C)C)C3)nc2)c1Cl` [Example 678, 7-((1R,3R,5R)-3-(((3-chloro-4-methoxypyridin-2-yl)oxy)methyl)-2-azabicyclo[3.1.0]hexan-2-yl)-1-(6-(3-(dimethylamino)azetidin-1-yl)pyridin-3-yl)-6-fluoro-4-oxo-1,4-dihydro-1,8-naphthyridine-3-carboxylic acid]: the pIC50 was ≥ 6.00.

With `COc1ccnc(OC[C@H]2C[C@H]3C[C@H]3N2c2nc3c(cc2Cl)c(=O)c(C(=O)O)cn3-c2ccc(N3CC(N(C)C)C3)nc2)c1Cl` [Example 679, 6-chloro-7-((1R,3R,5R)-3-(((3-chloro-4-methoxypyridin-2-yl)oxy)methyl)-2-azabicyclo[3.1.0]hexan-2-yl)-1-(6-(3-(dimethylamino)azetidin-1-yl)pyridin-3-yl)-4-oxo-1,4-dihydro-1,8-naphthyridine-3-carboxylic acid], the pIC50 was ≥ 6.00.

As for `COc1ccnc(OC[C@H]2C[C@H]3C[C@H]3N2c2cc3c(cc2F)c(=O)c(C(=O)O)cn3-c2ccc(N3CC(N(C)C)C3)nc2)c1C` [Example 681, 1-(6-(3-(dimethylamino)azetidin-1-yl)pyridin-3-yl)-6-fluoro-7-((1R,3R,5R)-3-(((4-methoxy-3-methylpyridin-2-yl)oxy)methyl)-2-azabicyclo[3.1.0]hexan-2-yl)-4-oxo-1,4-dihydroquinoline-3-carboxylic acid], the pIC50 is ≥ 6.00.

In the case of `COc1ccc(C)c(OC[C@H]2C[C@H]3C[C@H]3N2c2cc3c(cc2F)c(=O)c(C(=O)O)cn3-c2ccc(N3CC(N(C)C)C3)nc2)n1` [Example 682, 1-(6-(3-(dimethylamino)azetidin-1-yl)pyridin-3-yl)-6-fluoro-7-((1R,3R, 5R)-3-(((6-methoxy-3-methylpyridin-2-yl)oxy)methyl)-2-azabicyclo[3.1.0]hexan-2-yl)-4-oxo-1,4-dihydroquinoline-3-carboxylic acid], the pIC50 is ≥ 6.00.

Take `COc1ccnc(OC[C@H]2C[C@H]3C[C@H]3N2c2cc3c(cc2Cl)c(=O)c(C(=O)O)cn3-c2ccc(N3CC(N(C)C)C3)nc2)c1C` [Example 683, 6-chloro-1-(6-(3-(dimethylamino)azetidin-1-yl)pyridin-3-yl)-7-((1R,3R,5R)-3-(((4-methoxy-3-methylpyridin-2-yl)oxy)methyl)-2-azabicyclo[3.1.0]hexan-2-yl)-4-oxo-1,4-dihydroquinoline-3-carboxylic acid]: the pIC50 is ≥ 6.00.

In the case of `COc1ccc(Cl)c(OC[C@H]2[C@@H](OC)CCN2c2cc3c(cc2Cl)c(=O)c(C(=O)O)cn3-c2ccc(N3CC(N(C)C)C3)nc2)n1` [Example 684, 6-chloro-7-((2S,3S)-2-(((3-chloro-6-methoxypyridin-2-yl)oxy)methyl)-3-methoxypyrrolidin-1-yl)-1-(6-(3-(dimethylamino)azetidin-1-yl)pyridin-3-yl)-4-oxo-1,4-dihydroquinoline-3-carboxylic acid], the negative-log IC50 (pIC50) was ≥ 6.00.

As to `COc1ccnc(OC[C@H]2C[C@H]3C[C@H]3N2c2cc3c(cc2Cl)c(=O)c(C(=O)O)cn3-c2ccc(N3CC(N(C)C)C3)nc2)c1F` [Example 685, 6-chloro-1-(6-(3-(dimethylamino)azetidin-1-yl)pyridin-3-yl)-7-((1R,3R,5R)-3-(((3-fluoro-4-methoxypyridin-2-yl)oxy)methyl)-2-azabicyclo[3.1.0]hexan-2-yl)-4-oxo-1,4-dihydroquinoline-3-carboxylic acid], the pIC50 is ≥ 6.00.

Take `COc1ccnc(OC[C@H]2C[C@H]3C[C@H]3N2c2cc3c(cc2F)c(=O)c(C(=O)O)cn3-c2ccc(N3CC(N(C)C)C3)nc2)c1F` [Example 686, 1-(6-(3-(dimethylamino)azetidin-1-yl)pyridin-3-yl)-6-fluoro-7-((1R,3R, 5R)-3-(((3-fluoro-4-methoxypyridin-2-yl)oxy)methyl)-2-azabicyclo[3.1.0]hexan-2-yl)-4-oxo-1,4-dihydroquinoline-3-carboxylic acid]: the negative-log IC50 (pIC50) is ≥ 6.00.

With `CN(C)C1CN(c2ccc(-n3cc(C(=O)O)c(=O)c4cc(C#N)c(N5CCC[C@]5(C)COc5ncccc5F)cc43)cn2)C1` [Example 687, (R)-6-cyano-1-(6-(3-(dimethylamino)azetidin-1-yl)pyridin-3-yl)-7-(2-(((3-fluoropyridin-2-yl)oxy)methyl)-2-methylpyrrolidin-1-yl)-4-oxo-1,4-dihydroquinoline-3-carboxylic acid], the pIC50 was ≥ 6.00.

For orientation: pIC50 means the IC50 on a negative log10 scale, so that one unit is a factor of ten.

(Values after US12662491B2 (Redona Therapeutics, Inc., priority 2020, dated 2026).)
